Experiments:
[1] = target: wild type MLL1 four-member complex (MLL1-4C) (Homo sapiens, UniProt P61964); assay: MLL1 LC-MS assay (SAH production); format: biochemical; settings: read-out: (b) MLL LCMS Peptide Val.v.1 Qualified AC50
Method in brief: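 MLL1-4C (30 nM final) was preincubated 20 min with compound (3-fold dilutions, 8 or 12 points) and SAM in Tris-HCl pH 8.0 buffer. H3K4me0 peptide (histone H3[1-21]-biotin) was then added, giving final 2.5 μM SAM and 10 μM substrate, and reactions ran 120 min at rt. After TFA/d4-SAH quench, SAH was quantified by LC-MS/MS and IC50 fitted from control-normalised activity.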

[2] = tested on: MV4-11 cells; assay: MV4-11 6-day cell growth CTG (CellTiter-Glo) assay; format: cell-based; settings: Homo sapiens, MV4-11, 144 h, 6 days, read-out: (c) MLL/WDR5 cell proliferation assay//MLL/WDR5 proliferation MV4:11 Qualified AC50
Method in brief: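 Exponentially growing MV4-11 AML cells (RPMI 1640, 10% FBS) seeded at 300 cells/well with 12-point 1:3 compound dilutions, top final concentration 50 μM. Viability read by CellTiter-Glo luminescence after 6 days at 37° C; % inhibition vs DMSO-only wells fitted to dose-response for IC50.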

[3] = target: WDR5 (Homo sapiens, UniProt P61964); assay: WDR5 HTRF binding assay; settings: read-out: (a) WDR5 HTRF Pep Val v.1[Inhibitor/IC50]Qualified AC50
Method in brief: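 6 nM WDR5 and 20 nM biotin-MLL1 WIN peptide (3762-3773) were incubated with compound (12-point, 3-fold dilutions) in pH 7.5 Hepes/NaCl/DTT buffer for 20 min at rt. Streptavidin-APC plus anti-His-Eu were then added for 1 hr, with HTRF read at 665/615. IC50 was fit from control-normalized activity; the counter assay used 15 nM biotin-PEG-His peptide.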

| SMILES | AC50 [1] [nM] | AC50 [2] [nM] | IC50 [3] [nM] |
| --- | --- | --- | --- |
| CNc1nccn1Cc1cc(CN(C)CC(F)(F)F)c2c(c1)C(=O)N([C@@H](C)c1cc(OC)c(F)cn1)CC2 [Example 47, (S)-2-(1-(5-fluoro-4-methoxypyridin-2-yl)ethyl)-5-((methyl(2,2,2-trifluoroethyl)amino)methyl)-7-((2-(methylamino)-1H-imidazol-1-yl)methyl)-3,4-dihydroisoquinolin-1(2H)-one] | 10 to 1000 | 10 to 1000 | 10 to 1000 |
| CNc1nccn1Cc1cc(CN2CC(F)(F)C2)c2c(c1)C(=O)N([C@@H](C)c1cc(OC)c(F)cn1)CC2 [Example 48, (S)-5-((3,3-difluoroazetidin-1-yl)methyl)-2-(1-(5-fluoro-4-methoxypyridin-2-yl)ethyl)-7-((2-(methylamino)-1H-imidazol-1-yl)methyl)-3,4-dihydroisoquinolin-1(2H)-one] | 10 to 1000 | 10 to 1000 | 10 to 1000 |
| CNc1nccn1Cc1cc(CN(C)CCF)c2c(c1)C(=O)N([C@@H](C)c1cc(OC)c(F)cn1)CC2 [Example 49, (S)-2-(1-(5-fluoro-4-methoxypyridin-2-yl)ethyl)-5-(((2-fluoroethyl)(methyl)amino)methyl)-7-((2-(methylamino)-1H-imidazol-1-yl)methyl)-3,4-dihydroisoquinolin-1(2H)-one] | 10 to 1000 | 10 to 1000 | 10 to 1000 |
| CCOc1cc([C@H](C)N2CCc3c(CN(C)C)cc(Cn4ccnc4NC)cc3C2=O)ncc1C#N [Example 50, (S)-6-(1-(5-((dimethylamino)methyl)-7-((2-(methylamino)-1H-imidazol-1-yl)methyl)-1-oxo-3,4-dihydroisoquinolin-2(1H)-yl)ethyl)-4-ethoxynicotinonitrile] | 10 to 1000 | 10 to 1000 | 10 to 1000 |
| CNc1nccn1Cc1cc2c(c(-c3cc(CO)cnc3Cl)c1)CCN(Cc1cccc(OC)c1)C2=O [Example 52, 5-(2-chloro-5-(hydroxymethyl)pyridin-3-yl)-2-(3-methoxybenzyl)-7-((2-(methylamino)-1H-imidazol-1-yl)methyl)-3,4-dihydroisoquinolin-1(2H)-one] | 10 to 1000 | 10 to 1000 | < 10 |
| CNc1nccn1Cc1cc2c(c(-c3cc(CO)cnc3Cl)c1)CCN(Cc1ccc(F)c(OC)c1)C2=O [Example 53, 5-(2-chloro-5-(hydroxymethyl)pyridin-3-yl)-2-(4-fluoro-3-methoxybenzyl)-7-((2-(methylamino)-1H-imidazol-1-yl)methyl)-3,4-dihydroisoquinolin-1(2H)-one] | 10 to 1000 | 10 to 1000 | 10 to 1000 |
| CNc1nccn1Cc1cc2c(c(-c3cn(C)nc3C(F)(F)F)c1)CCN(Cc1ccc(F)c(OC)c1)C2=O [Example 54, 2-(4-fluoro-3-methoxybenzyl)-5-(1-methyl-3-(trifluoromethyl)-1H-pyrazol-4-yl)-7-((2-(methylamino)-1H-imidazol-1-yl)methyl)-3,4-dihydroisoquinolin-1(2H)-one] | 10 to 1000 | 10 to 1000 | 10 to 1000 |
| CNc1nccn1Cc1cc2c(c(-c3c[nH]nc3C)c1)CCN(Cc1ccc(F)c(OC)c1)C2=O [Example 55, 2-(4-fluoro-3-methoxybenzyl)-5-(3-methyl-1H-pyrazol-4-yl)-7-((2-(methylamino)-1H-imidazol-1-yl)methyl)-3,4-dihydroisoquinolin-1(2H)-one] | 10 to 1000 | 10 to 1000 | 10 to 1000 |
| CNc1nccn1Cc1cc2c(c(-c3cc(CO)cnc3Cl)c1)CCN([C@@H](C)c1ccc(F)c(OC)c1)C2=O [Example 56, (S)-5-(2-chloro-5-(hydroxymethyl)pyridin-3-yl)-2-(1-(4-fluoro-3-methoxyphenyl)ethyl)-7-((2-(methylamino)-1H-imidazol-1-yl)methyl)-3,4-dihydroisoquinolin-1(2H)-one] | 10 to 1000 | 10 to 1000 | 10 to 1000 |
| CNc1nccn1Cc1cc2c(c(-c3cc(CO)cnc3Cl)c1)CCN([C@H](C)c1ccc(F)c(OC)c1)C2=O [Example 57, (R)-5-(2-chloro-5-(hydroxymethyl)pyridin-3-yl)-2-(1-(4-fluoro-3-methoxyphenyl)ethyl)-7-((2-(methylamino)-1H-imidazol-1-yl)methyl)-3,4-dihydroisoquinolin-1(2H)-one] | 10 to 1000 | 10 to 1000 | 10 to 1000 |
| CNc1nccn1Cc1cc2c(c(-c3cn(C)nc3C)c1)CCN(Cc1ccc(F)c(OC)c1)C2=O [Example 58, 5-(1,3-dimethyl-1H-pyrazol-4-yl)-2-(4-fluoro-3-methoxybenzyl)-7-((2-(methylamino)-1H-imidazol-1-yl)methyl)-3,4-dihydroisoquinolin-1(2H)-one] | 10 to 1000 | 10 to 1000 | 10 to 1000 |
| CNc1nccn1Cc1cc2c(c(-c3cncnc3)c1)CCN([C@@H](C)c1cc(OC)c(F)cn1)C2=O [Example 59, (S)-2-(1-(5-fluoro-4-methoxypyridin-2-yl)ethyl)-7-((2-(methylamino)-1H-imidazol-1-yl)methyl)-5-(pyrimidin-5-yl)-3,4-dihydroisoquinolin-1(2H)-one] | 10 to 1000 | 10 to 1000 | 10 to 1000 |
| CNc1nccn1Cc1cc2c(c(-c3ccnn3C)c1)CCN(Cc1cc(OC)c(F)cn1)C2=O [Example 60, 2-((5-fluoro-4-methoxypyridin-2-yl)methyl)-5-(1-methyl-1H-pyrazol-5-yl)-7-((2-(methylamino)-1H-imidazol-1-yl)methyl)-3,4-dihydroisoquinolin-1(2H)-one] | 10 to 1000 | 10 to 1000 | 10 to 1000 |
| CNc1nccn1Cc1cc2c(c(-c3cc(CO)cnc3Cl)c1)CCN(Cc1cc(OC)c(F)cc1F)C2=O [Example 61, 5-(2-chloro-5-(hydroxymethyl)pyridin-3-yl)-2-(2,4-difluoro-5-methoxybenzyl)-7-((2-(methylamino)-1H-imidazol-1-yl)methyl)-3,4-dihydroisoquinolin-1(2H)-one] | 10 to 1000 | 10 to 1000 | 10 to 1000 |
| CNc1nccn1Cc1cc2c(c(-c3cn(C)nc3C)c1)CCN([C@@H](C)c1cc(OC)c(F)cn1)C2=O [Example 62, (S)-5-(1,3-dimethyl-1H-pyrazol-4-yl)-2-(1-(5-fluoro-4-methoxypyridin-2-yl)ethyl)-7-((2-(methylamino)-1H-imidazol-1-yl)methyl)-3,4-dihydroisoquinolin-1(2H)-one] | 10 to 1000 | 10 to 1000 | 10 to 1000 |
| CNc1nccn1Cc1cc2c(c(-c3ccn[nH]3)c1)CCN([C@@H](C)c1cc(OC)c(F)cn1)C2=O [Example 63, (S)-2-(1-(5-fluoro-4-methoxypyridin-2-yl)ethyl)-7-((2-(methylamino)-1H-imidazol-1-yl)methyl)-5-(1H-pyrazol-5-yl)-3,4-dihydroisoquinolin-1(2H)-one] | 10 to 1000 | 10 to 1000 | 10 to 1000 |
| CNc1nccn1Cc1cc2c(c(-c3cn(C)nc3C(F)(F)F)c1)CCN(Cc1cc(OC)c(F)cn1)C2=O [Example 64, 2-((5-fluoro-4-methoxypyridin-2-yl)methyl)-5-(1-methyl-3-(trifluoromethyl)-1H-pyrazol-4-yl)-7-((2-(methylamino)-1H-imidazol-1-yl)methyl)-3,4-dihydroisoquinolin-1(2H)-one] | 10 to 1000 | 10 to 1000 | 10 to 1000 |
| CNc1nccn1Cc1cc2c(c(-c3cc(CO)ccc3Cl)c1)CCN(Cc1ccc(F)c(OC)c1)C2=O [Example 65, 5-(2-chloro-5-(hydroxymethyl)phenyl)-2-(4-fluoro-3-methoxybenzyl)-7-((2-(methylamino)-1H-imidazol-1-yl)methyl)-3,4-dihydroisoquinolin-1(2H)-one] | 10 to 1000 | 10 to 1000 | 10 to 1000 |
| CNc1nccn1Cc1cc2c(c(-c3cn(C)nc3C(F)F)c1)CCN(Cc1ccc(F)c(OC)c1)C2=O [Example 66, 5-(3-(difluoromethyl)-1-methyl-1H-pyrazol-4-yl)-2-(4-fluoro-3-methoxybenzyl)-7-((2-(methylamino)-1H-imidazol-1-yl)methyl)-3,4-dihydroisoquinolin-1(2H)-one] | 10 to 1000 | 10 to 1000 | 10 to 1000 |
| CNc1nccn1Cc1cc2c(c(-c3cc(CO)cnc3Cl)c1)CCN(Cc1cc(F)cc(Cl)c1)C2=O [Example 67, 5-(2-chloro-5-(hydroxymethyl)pyridin-3-yl)-2-(3-chloro-5-fluorobenzyl)-7-((2-(methylamino)-1H-imidazol-1-yl)methyl)-3,4-dihydroisoquinolin-1(2H)-one] | 10 to 1000 | 10 to 1000 | 10 to 1000 |
| CNc1nccn1Cc1cc2c(c(-c3cc(CO)cnc3Cl)c1)CCN(Cc1cc(OC)c(F)cn1)C2=O [Example 68, 5-(2-chloro-5-(hydroxymethyl)pyridin-3-yl)-2-((5-fluoro-4-methoxypyridin-2-yl)methyl)-7-((2-(methylamino)-1H-imidazol-1-yl)methyl)-3,4-dihydroisoquinolin-1(2H)-one] | 10 to 1000 | 10 to 1000 | 10 to 1000 |

Reference: patent US20220289732A1, “HETEROCYCLIC WDR5 INHIBITORS AS ANTI-CANCER COMPOUNDS” (NOVARTIS AG, priority 2019, published 2022)
